The source of these data is patent publication US9000044B2, “Substituted naphthylacetic acids” (Hoffmann-La Roche Inc., priority 2012, dated 2015).

The structures appear in SMILES notation.

Chain of human CRTH2 (Q9Y5Y4 whole entry): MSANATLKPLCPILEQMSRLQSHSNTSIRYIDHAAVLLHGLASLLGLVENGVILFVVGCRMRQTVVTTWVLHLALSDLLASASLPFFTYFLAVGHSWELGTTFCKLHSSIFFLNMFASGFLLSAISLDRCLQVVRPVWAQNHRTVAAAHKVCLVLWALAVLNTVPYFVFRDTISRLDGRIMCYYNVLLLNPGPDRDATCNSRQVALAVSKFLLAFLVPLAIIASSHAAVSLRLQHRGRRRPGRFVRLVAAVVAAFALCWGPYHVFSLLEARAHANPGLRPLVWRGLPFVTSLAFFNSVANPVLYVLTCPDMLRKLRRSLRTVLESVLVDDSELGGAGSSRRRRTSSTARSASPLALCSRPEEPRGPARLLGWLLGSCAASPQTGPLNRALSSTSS

The target in this experiment is human CRTH2 (Homo sapiens (Human), UniProt Q9Y5Y4). In words: Calcium Flux Assay Using Fluorometric Imaging Plate Reader (FLIPR). The format is cell-based. To be noted: CHO-K1 cells with G-alpha 16 and human CRTH2; inhibition of DK-PGD2 ligand-induced Ca2+ flux. As to the method:
Calcium Flux Assay Using Fluorometric Imaging Plate Reader (FLIPR)
Cell Culture Conditions: CHO-K1 cells previously transfected with G-alpha 16 were subsequently transfected with the human CRTH2 receptor and the neomycin resistance gene. Following selection in 800 μg/mL G418 (geneticin), individual clones were assayed for their receptor expression based on staining with an anti human CRTH2 IgG, followed by assaying for their response to 13,14-dihydro-15-keto Prostaglandin D2 (DK-PDG2) (ligand) in the Ca^2+ Flux assay. Positive clones were then cloned by limiting dilution cloning. The transfected cells were cultured in Ham's F-12 medium supplemented with 10% fetal bovine serum, 2 mM glutamine, 100 U/mL penicillin/100 μg/mL streptomycin, 200 μg/mL hygromycin B, and 800 μg/mL G418 (geneticin). Cells were harvested with trypsin-EDTA (trypsin-ethylenediaminetetraacetic acid) and counted using ViaCount® reagent (from Guava Technologies, Inc. which contains two DNA-binding dyes that enable the reagent user to distinguish between viable and non-viable cells). The cell suspension volume was adjusted to 2.5×10^5 cells/mL with complete growth media. Aliquots of 50 μL were dispensed into BD Falcon™ 384 well black/clear microplates (from BD Biosciences, a division of Becton, Dickinson and Company) and the microplates were placed in a 37° C. CO2 incubator overnight. The following day, the microplates were used in the assay.
Loading Buffer containing dye (from the FLIPR® Calcium 3 Assay Kit from Molecular Devices, a division of MDS Analytical Technologies and MDS Inc.) was prepared by dissolving the contents of one bottle into 200 mL Hank's Balanced Salt Solution containing 20 mM HEPES (4-(2-hydroxyethyl)-1-piperazineethanesulfonic acid) and 2.5 mM probenecid. Growth media was removed from the cell plates and 25 μL of Hank's Balanced Salt Solution (HBSS) containing 20 mM HEPES, 0.05% BSA and 2.5 mM probenecid was added to each well followed by 25 μL of diluted dye using a Multidrop dispenser. The plates were then incubated for 1 hour at 37° C.
During the incubation, test compound plates were prepared by adding 90 μL of HBSS/20 mM HEPES/0.005% BSA buffer to the 2 μL of serial diluted compounds. To prepare serial diluted compounds, 20 mM stocks of compounds were dissolved in 100% DMSO. The compound dilution plate was set up as follows: well #1 received 5 μL of compound plus 10 μL of DMSO. Wells 2-10 received 10 μL of DMSO. 5 μL was mixed and transferred from well #1 into well #2. 1:3 serial dilutions were continued out 10 steps. 2 μL of diluted compound was transferred into duplicate wells of a 384 well “assay plate” and then 90 μL of buffer was added.
After incubation, both the cell and “assay plate” plates were brought to the fluorometric imaging plate reader (FLIPR®) and 20 μL of the diluted compounds were transferred to the cell plates by the FLIPR®. Plates were then incubated for 1 hour at room temperature. […] During the assay, fluorescence readings were taken simultaneously from all 384 wells of the cell plate every 1.5 seconds. Five readings were taken to establish a stable baseline, then 20 μL of sample was rapidly (30 μL/sec) and simultaneously added to each well of the cell plate. The fluorescence was continuously monitored before, during and after sample addition for a total elapsed time of 100 seconds. Responses (increase in peak fluorescence) in each well following agonist addition were determined. The initial fluorescence reading from each well, prior to ligand stimulation, was used as a zero baseline value for the data from that well. The responses were expressed as % inhibition of the buffer control.
As to `COc1ccc(CN(C(C)C)S(=O)(=O)c2ccc(-c3c(C)c(CC(=O)O)cc4ccc(Cl)cc34)cc2)cc1` [Example 40, (6-Chloro-4-{4-[isopropyl-(4-methoxy-benzyl)-sulfamoyl]-phenyl}-3-methyl-naphthalen-2-yl)-acetic acid], the IC50 came to 3.1 nM.

`Cc1c(CC(=O)O)cc2ccc(Cl)cc2c1-c1ccc(S(=O)(=O)Nc2ccc(F)cc2)cc1` [Example 28, {6-Chloro-4-[4-(4-fluoro-phenylsulfamoyl)-phenyl]-3-methyl-naphthalen-2-yl}-acetic acid]: the half-maximal inhibitory concentration (IC50) is 1.1 nM.

In the case of `Cc1c(CC(=O)O)cc2ccc(Cl)cc2c1-c1ccc(S(=O)(=O)NCc2ccccc2)cc1` [Example 38, [4-(4-Benzylsulfamoyl-phenyl)-6-chloro-3-methyl-naphthalen-2-yl]-acetic acid], the IC50 is 1.6 nM. As to `Cc1c(CC(=O)O)cc2ccc(F)cc2c1-c1ccc(S(=O)(=O)c2cc(Cl)ccc2Cl)cc1` [Example 9, {4-[4-(2,5-Dichloro-benzenesulfonyl)-phenyl]-6-fluoro-3-methyl-naphthalen-2-yl}-acetic acid], the IC50 was found to be 3.7 nM. In the case of `Cc1c(Cl)cccc1NS(=O)(=O)c1ccc(-c2c(C)c(CC(=O)O)cc3ccc(Cl)cc23)cc1` [Example 31, {6-Chloro-4-[4-(3-chloro-2-methyl-phenylsulfamoyl)-phenyl]-3-methyl-naphthalen-2-yl}-acetic acid] it was 6.7 nM; in that of `Cc1ccc(NS(=O)(=O)c2ccc(-c3c(C)c(CC(=O)O)cc4ccc(F)cc34)cc2)cc1` [Example 42, [6-Fluoro-3-methyl-4-(4-p-tolylsulfamoyl-phenyl)-naphthalen-2-yl]-acetic acid], 0.9 nM; in that of `Cc1c(CC(=O)O)cc2ccc(Cl)cc2c1-c1ccc(S(=O)(=O)c2ccccc2Cl)cc1` [Example 15, {6-Chloro-4-[4-(2-chloro-benzenesulfonyl)-phenyl]-3-methyl-naphthalen-2-yl}-acetic acid], 9.2 nM. On to `Cc1c(CC(=O)O)cc2ccc(Cl)cc2c1-c1ccc(S(=O)(=O)N2CCCCC2)cc1` [Example 34, {6-Chloro-3-methyl-4-[4-(piperidine-1-sulfonyl)-phenyl]-naphthalen-2-yl}-acetic acid], for which the IC50 is 0.9 nM. The same measure for `Cc1c(CC(=O)O)cc2ccc(F)cc2c1-c1ccc(S(=O)(=O)c2ccccc2OC(F)(F)F)cc1` [Example 6, {6-Fluoro-3-methyl-4-[4-(2-trifluoromethoxy-benzenesulfonyl)-phenyl]-naphthalen-2-yl}-acetic acid]: 1 nM. In the case of `Cc1ccc(NS(=O)(=O)c2ccc(-c3c(C)c(CC(=O)O)cc4ccc(Cl)cc34)cc2)cc1` [Example 29, [6-Chloro-3-methyl-4-(4-p-tolylsulfamoyl-phenyl)-naphthalen-2-yl]-acetic acid] it was 2.7 nM; in that of `Cc1c(CC(=O)O)cc2ccc(Cl)cc2c1-c1ccc(S(=O)(=O)c2cc(C(F)(F)F)cc(C(F)(F)F)c2)cc1` [Example 25, {4-[4-(3,5-Bis-trifluoromethyl-benzenesulfonyl)-phenyl]-6-chloro-3-methyl-naphthalen-2-yl}-acetic acid], 44.7 nM; in that of `Cc1c(CC(=O)O)cc2ccc(Cl)cc2c1-c1ccc(S(=O)(=O)c2ccc(OC(F)(F)F)cc2)cc1` [Example 20, {6-Chloro-3-methyl-4-[4-(4-trifluoromethoxy-benzenesulfonyl)-phenyl]-naphthalen-2-yl}-acetic acid], 12.9 nM. Regarding `Cc1c(CC(=O)O)cc2ccc(Cl)cc2c1-c1ccc(S(=O)(=O)NC2CCCCC2)cc1` [Example 36, [6-Chloro-4-(4-cyclohexylsulfamoyl-phenyl)-3-methyl-naphthalen-2-yl]-acetic acid], the IC50 amounted to 6.1 nM. Regarding `Cc1c(CC(=O)O)cc2ccc(Cl)cc2c1-c1ccc(S(=O)(=O)c2ccccc2OC(F)(F)F)cc1` [Example 19, {6-Chloro-3-methyl-4-[4-(2-trifluoromethoxy-benzenesulfonyl)-phenyl]-naphthalen-2-yl}-acetic acid], the IC50 stood at 19.7 nM.
